Reference: patent publication US6703371B1, “Preparations for reducing oxygen consumption during physical efforts” (priority 1999, dated 2004)
Where “and” joins values, the source holds several entries; their conditions need not be identical. Equal entries are not always repeated. Where two headings read alike, the source gives them in different places.

Experiments:
test subject [1] = format: in vivo, human; conditions: for change in vivo at 0.2 mg / change in vivo at 1 mg: Homo sapiens, 10 min
test subject [2] = test: Bicycle ergometer test at 100 W: antagonism between inactive (1st dosage) and active (2nd dosage) substances (Example 1b); format: in vivo, human; conditions: for Change in the oxygen consumption after 2nd dosage: relative to after 1st dosage
Method: (§1) 13 to Mar. 6, 1999, with a subject in good physical condition under standard conditions. The subject was required each morning in the fasting state to perform successively (without interruption) at mechanical power output of 100 W, 125 W and 150 W, each lasting 10 minutes (total test duration 30 minutes each time). […] The heat production induced by mechanical exertion was calculated from the changes in the heart rate. An alternative possibility is also to determine it on the basis of the increase in humidity caused by the perspiration (the tests are carried out in a closed room) or reduction in weight (1 g of water=2.26 kJ). […] The values indicated in table la for the “average heart rate” are in each case averages over the 30-minute duration of the test; relative values for the oxygen consumption were established on the basis of the heart rates in a known manner, and the relative values indicated in Table 1a are based on the oxygen consumption on the first day (=100%); the values listed in the column “heat production” in Table 1a give the percentage deviation of the heat production, established on the basis of the perspiration, from the average from all the tests.
(§2) It is known that the oxygen uptake can be determined by measuring the heart rate as a function of the mechanical exertion. This ergometric method is based on establishing the oxygen transport volume through the action of the heart. Since the stroke volume is essentially constant irrespective of the intensity of the mechanical work, and the increased oxygen demand caused by the increase in work results in an increase in the heart rate, the quantity of the transported oxygen can be established by determining the additional heartbeats caused by the work. A 3-stage ergometer as recommended by the World Health Organization (WHO) is used in physiology research institutes and fitness clubs around the world.

test subject [3] = test: Bicycle ergometer test at 100 W: active ingredient, sucrose, further active ingredient, amino acid/vitamin product (Example 1c); format: in vivo, human; conditions: for Average heart rate after 4th dos.: 4th dosage 100 mg of Na glutamate, 0.3 mg of folic acid, 5 μg of cyanocobalamin in 10 mg of gelatin; for Average heart rate after 2nd dos.: then 2nd dosage 2.5 g of sucrose
Method: as §1, §2

[4] = Oxygen-sparing action during physical work, general findings in the description; format: in vivo; conditions: result in words; for Oxygen demand after administration: even occasionally increased
test subject [5] = test: Bicycle ergometer test at 100 W: active ingredient, sucrose, further active ingredient, amino acid/vitamin product (Example 1c); format: in vivo, human; conditions: for Change in oxygen consumption after 2nd dos.: 2nd dosage 2.5 g of sucrose; for Change in oxygen consumption after 2nd dos. / Change in oxygen consumption after 4th dos. / Change in oxygen consumption after 3rd dos.: relative to preceding dosage; for Change in oxygen consumption after 4th dos.: 4th dosage Na glutamate/folic acid/cyanocobalamin/gelatin; for Average heart rate after 1st dos.: 10-minute test at 100 W
test subject [6] = conditions: 125 W
Excerpt: Unless otherwise indicated, the tests each took place in the morning in the fasting state, with mechanical power outputs of 100 W, 125 W or 150 W being required in each case from the test subject during one or more 10-minute test periods. A bicycle ergometer from Ergo Fit (Kaiserslautern, Germany) was used for this, and the required work was controlled at 60 pedal revolutions per minute in each case (controlled by a metronome from Seiko, Japan) by means of an eddy current brake. A heart rate computer from Polar Electro (Kempele, Finland) was used for continuous measurement of the heart rate; the atmospheric pressure was measured by an electronic barograph from Altitude Instrumentation (Paris, France) with a resolution of 0.1 mbar; the temperature and relative humidity were measured by an electronic thermohygrometer. The “average heart rates” indicated in the tables are in each case averages of the particular test period. The test subject received a high-carbohydrate diet mainly composed of pasta, and meat of young animals (veal, chicken, fish) in order to ensure an adequate supply of protein, throughout the series of tests. Only 1 test was carried out on each day.
Only 1 test was carried out on each day.

test subject [7] = test: Bicycle ergometer test at 100 W with gelatin products (Example 7); format: in vivo, human; conditions: for Average heart rate after 1st dos.: 100 W; for Average heart rate before: 10-minute control test at 100 W before the 1st dosage
Method: In tests analogous to Example 1, the tests indicated in Table 7 were carried out with gelatin products which were produced in analogy to Examples 3-5. After a warm-up period of 5 minutes in each case firstly the heartbeats were recorded at a mechanical power output of 100 W during a 10-minute control test, then the 1st dosage was administered and immediately thereafter the heart rate was measured in a 10-minute test period with a power output of 100 W. In the case of a 2nd dosage, this further administration and a second 10-minute test period take place with a power output of 100 W immediately following the first test period.

[8] = read-out: Change in the oxygen demand
[9] = read-out: Heat production (deviation from the average of all the tests)
[10] = 3rd dosage further 0.2 mg of active ingredient after sucrose
[11] = after 0.2 mg of active ingredient
[12] = 1st dosage 0.2 mg as dilute aqueous solution
[13] = 3rd dosage further 0.2 mg of active ingredient
[14] = 3rd dosage further 1 mg of active ingredient after sucrose
[15] = after 1 mg of active ingredient
[16] = 1st dosage 1 mg as dilute aqueous solution
[17] = 3rd dosage further 1 mg of active ingredient

Structure (SMILES): COc1ccc2c3c1O[C@H]1[C@@H](O)C=C[C@H]4[C@@H](C2)N(C)CC[C@@]341 [codeine]
- change in vivo at 0.2 mg (test subject [1]; [8]): -29%
- change in vivo at 0.2 mg (test subject [1]; [9]): -27%
- Change in the oxygen consumption after 2nd dosage (test subject [2]; 2nd dosage 0.5 mg, after 0.5 mg of flupentixol, 100 W): −57%
- Change in the oxygen consumption after 2nd dosage (test subject [2]; 2nd dosage 0.5 mg, after 1 mg of lorazepam, 100 W): −59%
- Change in the oxygen consumption after 2nd dosage (test subject [2]; 2nd dosage 0.5 mg, after 6 mg of amitriptyline + 2.5 mg of chlordiazepoxide, 100 W): −52%
- Change in the oxygen consumption after 2nd dosage (test subject [2]; 2nd dosage 0.5 mg, after 7 mg of oxazepam, 100 W): −67%
- Change in the oxygen consumption after 2nd dosage (test subject [2]; 2nd dosage 0.5 mg, after 10 mg of chlorprotixen, 100 W): −69%
- Average heart rate after 2nd dosage (test subject [2]; 2nd dosage 0.5 mg, after 1st dosage of 0.5 mg of flupentixol, 100 W): 89.7 per minute
- Average heart rate after 2nd dosage (test subject [2]; 2nd dosage 0.5 mg, after 1st dosage of 1 mg of lorazepam, 100 W): 91.8 per minute
- Average heart rate after 2nd dosage (test subject [2]; 2nd dosage 0.5 mg, after 1st dosage of 6 mg of amitriptyline + 2.5 mg of chlordiazepoxide, 100 W): 86.5 per minute
- Average heart rate after 2nd dosage (test subject [2]; 2nd dosage 0.5 mg, after 1st dosage of 7 mg of oxazepam, 100 W): 104.1 per minute
- Average heart rate after 2nd dosage (test subject [2]; 2nd dosage 0.5 mg, after 1st dosage of 10 mg of chlorprotixen, 100 W): 90.0 per minute
- Average heart rate after 4th dos. (test subject [3]; 0.2 mg series): 82.9 per minute
- Average heart rate after 3rd dos. (test subject [3]; [10]): 108 per minute
- Average heart rate after 2nd dos. (test subject [3]; [11]): 107.3 per minute
- Suitability for reducing the oxygen consumption during physical work [4]: suitable
- Change in oxygen consumption after 2nd dos. (test subject [5]; 0.2 mg series): +69%
- Change in oxygen consumption after 4th dos. (test subject [5]; 0.2 mg series): −50%
- Average heart rate after 1st dos. (test subject [5]; [12]): 73.0 per minute
- Change in oxygen consumption after 3rd dos. (test subject [5]; [13]): +2%

Structure (SMILES): COc1ccc2c(c1)[C@]13CCCC[C@@H]1[C@H](C2)N(C)CC3 [dextromethorphan]
- change in vivo at 0.2 mg (test subject [1]; [8]): -57%
- change in vivo at 0.2 mg (test subject [1]; [9]): -49%
- Change in the oxygen consumption after 2nd dosage (test subject [2]; 2nd dosage 0.2 mg, after 6 mg of amitriptyline + 2.5 mg of chlordiazepoxide, 100 W): −81%
- Average heart rate after 2nd dosage (test subject [2]; 2nd dosage 0.2 mg, after 1st dosage of 6 mg of amitriptyline + 2.5 mg of chlordiazepoxide, 100 W): 84.8 per minute
- Average heart rate after 4th dos. (test subject [3]; 0.2 mg series): 87.8 per minute
- Average heart rate after 3rd dos. (test subject [3]; [10]): 111 per minute
- Average heart rate after 2nd dos. (test subject [3]; [11]): 110.4 per minute
- Suitability for reducing the oxygen consumption during physical work [4]: suitable
- Change in oxygen consumption after 2nd dos. (test subject [5]; 0.2 mg series): +69%
- Change in oxygen consumption after 4th dos. (test subject [5]; 0.2 mg series): −46%
- Average heart rate after 1st dos. (test subject [5]; [12]): 75.8 per minute
- Change in oxygen consumption after 3rd dos. (test subject [5]; [13]): +1%

Structure (SMILES): CN1C(=O)CN=C(c2ccccc2)c2cc(Cl)ccc21 [diazepam]
- change in vivo at 1 mg (test subject [1]; [8]): -44%
- change in vivo at 1 mg (test subject [1]; [9]): -50%
- Change in the oxygen consumption after 2nd dosage (test subject [2]; 2nd dosage 1 mg, after 3 mg of bromazepam, 100 W): −65%
- Change in the oxygen consumption after 2nd dosage (test subject [2]; 2nd dosage 1 mg, after 7 mg of oxazepam, 100 W): −72%
- Change in the oxygen consumption after 2nd dosage (test subject [2]; 2nd dosage 1 mg, after 10 mg of nitrazepam, 100 W): −59%
- Average heart rate after 2nd dosage (test subject [2]; 2nd dosage 1 mg, after 1st dosage of 3 mg of bromazepam, 100 W): 97.0 per minute
- Average heart rate after 2nd dosage (test subject [2]; 2nd dosage 1 mg, after 1st dosage of 7 mg of oxazepam, 100 W): 89.4 per minute
- Average heart rate after 2nd dosage (test subject [2]; 2nd dosage 1 mg, after 1st dosage of 10 mg of nitrazepam, 100 W): 102.1 per minute
- Average heart rate after 4th dos. (test subject [3]; 1 mg series): 86.3 per minute
- Average heart rate after 3rd dos. (test subject [3]; [14]): 113.1 per minute
- Average heart rate after 2nd dos. (test subject [3]; [15]): 111.9 per minute
- Suitability for reducing the oxygen consumption during physical work [4]: suitable
- Average heart rate (test subject [6]; 1 mg, atmospheric pressure 1010.0 mbar): 80 per minute
- Average heart rate (test subject [6]; 1 mg, atmospheric pressure 1010.8 mbar): 71 per minute
- Average heart rate (test subject [6]; 1 mg, atmospheric pressure 1015.2 mbar): 77 per minute
- Average heart rate (test subject [6]; 1 mg, atmospheric pressure 1015.9 mbar): 72 per minute
- Average heart rate (test subject [6]; 1 mg, atmospheric pressure 1017.4 mbar): 74 per minute
- Average heart rate (test subject [6]; 1 mg, atmospheric pressure 1017.5 mbar): 72 per minute
- Average heart rate (test subject [6]; 1 mg, atmospheric pressure 1021.7 mbar): 76 per minute
- Average heart rate (test subject [6]; 1 mg, atmospheric pressure 1026.3 mbar): 75 per minute
- Average heart rate (test subject [6]; 2 mg, atmospheric pressure 1005.9 mbar): 76 per minute
- Average heart rate (test subject [6]; 2 mg, atmospheric pressure 1007.8 mbar): 79 per minute
- Effect of low atmospheric pressure on heart rate and oxygen consumption (test subject [6]; result in words): can be compensated
- Change in oxygen consumption after 2nd dos. (test subject [5]; 1 mg series): +74%
- Change in oxygen consumption after 4th dos. (test subject [5]; 1 mg series): −54%
- Average heart rate after 1st dos. (test subject [5]; [16]): 74.8 per minute
- Change in oxygen consumption after 3rd dos. (test subject [5]; [17]): +2%

Structure (SMILES): CN(C)CCCN1c2ccccc2CCc2ccccc21 [imipramine]
- Average heart rate after 1st dosage (test subject [2]; 1st dosage 10 mg in 20 ml of water, 10-minute test at 100 W): 109.5 per minute
- change in vivo at 10 mg (test subject [2]; Homo sapiens, 1st dosage 10 mg, 100 W, read-out: Change in the oxygen consumption after 1st dosage): 23%
- Average heart rate after 1st dos. (test subject [7]; 1st dosage 10 mg): 100.2 per minute
- Average heart rate before (test subject [7]): 87.7 per minute
- Oxygen demand after administration [4]: not reduced

Structure (SMILES): Cc1ncc2n1-c1ccc(Cl)cc1C(c1ccccc1F)=NC2 [midazolam]
- change in vivo at 1 mg (test subject [1]; [8]): -42%
- Effect on the heart rate, the oxygen consumption and the heat production (test subject [1]; low dosage, 125 W, result in words): marked reduction in the heart rate, the oxygen consumption and the heat production
- Average heart rate after 4th dos. (test subject [3]; 1 mg series): 83.2 per minute
- Average heart rate after 3rd dos. (test subject [3]; [14]): 112.1 per minute
- Average heart rate after 2nd dos. (test subject [3]; [15]): 110.9 per minute
- Suitability for reducing the oxygen consumption during physical work [4]: suitable
- Change in oxygen consumption after 2nd dos. (test subject [5]; 1 mg series): +70%
- Change in oxygen consumption after 4th dos. (test subject [5]; 1 mg series): −58%
- Average heart rate after 1st dos. (test subject [5]; [16]): 75.9 per minute
- Change in oxygen consumption after 3rd dos. (test subject [5]; [17]): +2%

Structure (SMILES): CC(CN(C)C)CN1c2ccccc2CCc2ccccc21 (centres unmarked) [trimipramine]
- Average heart rate after 1st dos. (test subject [7]; 1st dosage 12.5 mg): 101.7 per minute and 97.0 per minute
- Average heart rate before (test subject [7]): 79.8 per minute and 81.7 per minute
- Oxygen demand after administration [4]: not reduced
